The test has as its system anesthetized rats. Nature of the test: Cardiovascular effects (blood pressure, heart rate) in anesthetized rats pretreated with heparin and histamine antagonists or NO synthase inhibitor. To be noted: for blocking of blood pressure reductions caused by IV infusion of Compound 100: pretreatment at T = -15 minutes, Compound 100 at 8 and 16 mg/kg, anesthetized rat. It is filed as in vivo, rat. How it is done: A purpose of this study was to evaluate the role of histamine or nitric oxide (NO) on the hemodynamic effects of Compound 100 administered by a 10 minute IV infusion in rats by pretreatment with an H1 receptor blocker (diphenhydramine; DPH), an H2 receptor blocker (cimetidine; CIM), or an NO synthase inhibitor (L-NAME). Surgically prepared animals (jugular vein catheter for test article administration and carotid artery catheter for blood pressure/heart rate measurement) were purchased from Charles River Laboratories, Raleigh, N.C. Animals were anesthetized on the day of experimentation with isoflurane (1.8-4%). Blood pressure and heart rate data were collected on a Grass Polygraph recorder. Groups of three or four animals were administered two pretreatments followed by the administration of the vehicle or Compound 100. Dose groups are described in Table 1. Treatment 1 was administered at T=−15 minutes as an intravenous administration of saline, cimetidine or L-Name, a subcutaneous dose of diphenhydramine or a combination of diphenhydramine (s.c.) and cimetidine (i.v.). Saline or heparin were administered at T=−3 minutes by intravenous administration (Treatment 2). Treatment 3 was Compound 100 or sterile water (vehicle) which was administered by a 10 minute intravenous infusion. Blood pressure and heart rate were recorded prior to Treatment 1, 5 and 10 minutes after Treatment 1, 2 minutes following Treatment 2, and at 1, 15, 25, 40, and 70 minutes following Treatment 3. Each recording interval was approximately 1 minute long. [table]

SMILES strings stand for the structures.

As to `CN/C(=N/CCSCc1nc[nH]c1C)NC#N` [Cimetidine, cimetidine], the “blocking of blood pressure reductions caused by IV infusion of Compound 100” value is “only prevented blood pressure reductions at the 8 mg/kg dose”.

On to `COC(=O)[C@@H](N)CCCNC(=N)N[N+](=O)[O-]` [L-NAME], for which the “blocking of blood pressure reductions caused by IV infusion of Compound 100” value is listed as “ineffective at both Compound 100 dosages”. Where the note is “L-NAME 100 mg/kg i.v., before Compound 100”, the “blood pressure following administration of L-NAME, prior to dosing of test agent” value is “increases in blood pressure were evident”.

As for `CN(C)CCOC(c1ccccc1)c1ccccc1` [diphenhydramine], the “blocking of blood pressure reductions caused by IV infusion of Compound 100” value is “effectively blocks blood pressure reductions”.

The values above are taken from patent publication US20140162955A1, “Antagonizing Heparin With Salicylamide Compounds And Histamine Blocking Agents” (CELLCEUTIX CORPORATION, priority 2012, published 2014).
